The values below come from US4419123A, “Herbicidal 4-trifluoromethyl-3'-carbon-substituted-4'-substituted diphenyl ethers” (Rohm and Haas Company, priority 1981, dated 1983).

The nature of test [1]: Preemergence herbicidal activity (% control) against dicot weeds. The note with it: pre-emergence, 336 h; for activity at 4483.4 g/ha: read-out: Herbicidal activity (% control), preemergence, dicots, 4 lb./A., average, about two weeks after application; for activity at 2241.7 g/ha: read-out: Herbicidal activity (% control), preemergence, dicots, 2 lb./A., average, about two weeks after application.

Test [2] in a line: Postemergence herbicidal activity (% control) against dicot weeds. The following applies: post-emergence, 336 h; for activity at 4483.4 g/ha: read-out: Herbicidal activity (% control), postemergence, dicots, 4 lb./A., average, about two weeks after application; for activity at 2241.7 g/ha: read-out: Herbicidal activity (% control), postemergence, dicots, 2 lb./A., average, about two weeks after application.

Test [3] can be described thus: Preemergence herbicidal activity (% control) against monocot weeds. It counts as in vivo. The note with it: pre-emergence, 336 h, average, about two weeks after application, read-out: Herbicidal activity (% control), preemergence, monocots; for activity at 2241.7 g/ha: 2 lb./A.; for activity at 4483.4 g/ha: 4 lb./A. The text has this:
(§1) barnyardgrass (Echinochloa crusgalli) crabgrass (Digitaria spp.) nutsedge (Cyperus esculentus)
(§2) At 2 and 4 pounds per acre:
(§3) **Bermudagrass (Cynodon dactylon)
(§4) *downy brome (Bromus tectorum) foxtail (Setaria faberii)
(§5) Johnsongrass (Sorghum halepense) […]
(§6) quackgrass (Agropyron repens)
(§7) *ryegrass (Lolium perenne)
(§8) *wild oats (Avena factua)
(§9) *yellow millet (Panicum miliaceum)
(§10) The following test procedure is employed.

Test [4] in a line: Postemergence herbicidal activity (% control) against monocot weeds. It counts as in vivo. The following applies: post-emergence, 336 h, average, about two weeks after application, read-out: Herbicidal activity (% control), postemergence, monocots; for activity at 2241.7 g/ha: 2 lb./A.; for activity at 4483.4 g/ha: 4 lb./A.
From the text: as §1, §2, §3, §4, §5, §6, §7, §8, §9, §10

With `CC(=O)C(C)Oc1cc(Oc2ccc(C(F)(F)F)cc2Cl)ccc1[N+](=O)[O-]` (stereo not shown) [Example 32], the activity at 4483.4 g/ha in test [1] came to 100%; in test [2], 100%; in test [3], 86%; in test [4] it was 86%. Also, the activity at 2241.7 g/ha amounted to 81% in test [3] and 100% in test [4].
Regarding `CC(Oc1cc(Oc2ccc(C(F)(F)F)cc2Cl)ccc1[N+](=O)[O-])C(=O)O` (stereo not drawn) [Example 25, 2-Chloro-α,α,α-trifluoro-p-tolyl-3-(1-carboxyethoxy)-4-nitrophenyl ether], the activity at 2241.7 g/ha came to 93% in test [1], 100% in test [2], 40% in test [3] and 88% in test [4]. In addition, the activity at 4483.4 g/ha in test [1] is 88%; in test [2], 100%; in test [3], 87%; in test [4], 97%.
In the case of `CC(Oc1cc(Oc2ccc(C(F)(F)F)cc2Cl)ccc1[N+](=O)[O-])C(N)=O` (stereo not drawn) [Example 51, 2-chloro-α,α,α-trifluoro-p-tolyl-3-(1-carbamoylethoxy)-4-nitrophenyl ether], the activity at 2241.7 g/ha in test [1] was 100%; in test [2] it was 98%; in test [3], 96%; in test [4], 86%. Further, the activity at 4483.4 g/ha in test [1] was determined as 100%; in test [2] it was 100%; in test [3] it was 79%; in test [4] it was 75%.
Take `N#Cc1cc(Oc2ccc(C(F)(F)F)cc2Cl)ccc1[N+](=O)[O-]` [Example 47, 2-Chloro-α,α,α-trifluoro-p-tolyl-3-cyano-4-nitrophenyle ther]: the activity at 4483.4 g/ha was determined as 40% in test [1], 72% in test [2], 61% in test [3] and 11% in test [4]. Besides, the activity at 2241.7 g/ha turned out to be 84% in test [2], 80% in test [3] and 24% in test [4].
For `O=[N+]([O-])c1ccc(Oc2ccc(C(F)(F)F)cc2Cl)cc1OCCO` [Example 15, 2-chloro-α,α,α-trifluoro-p-tolyl-3-(2-hydroxyethoxy)-4-nitrophenyl ether], the activity at 2241.7 g/ha in test [1] was found to be 90%; in test [2], 94%; in test [3], 68%; in test [4], 76%. The activity at 4483.4 g/ha came out at 100% in test [1], 99% in test [2], 99% in test [3] and 79% in test [4].
Regarding `O=[N+]([O-])c1ccc(Oc2ccc(C(F)(F)F)cc2Cl)cc1N1CCOCC1` [Example 28, 2-chloro-α,α,α-trifluoro-p-tolyl-3-morpholino-4-nitrophenyl ether], the activity at 4483.4 g/ha in test [1] came to 95%; in test [2], 99%; in test [3] it was 74%; in test [4], 73%. Moreover, the activity at 2241.7 g/ha in test [2] amounted to 100%; in test [3], 79%; in test [4] it was 73%.
Consider `C=CCOc1cc(Oc2ccc(C(F)(F)F)cc2Cl)ccc1[N+](=O)[O-]` [Example 12], for which the activity at 2241.7 g/ha in test [1] amounted to 93%; in test [2], 100%; in test [3], 72%; in test [4] it was 99%. Besides, the activity at 4483.4 g/ha is 96% in test [1], 100% in test [2], 86% in test [3] and 77% in test [4].
For `CCCN(CCC)c1cc(Oc2ccc(C(F)(F)F)cc2Cl)ccc1[N+](=O)[O-]` [Example 41], the activity at 2241.7 g/ha was determined as 62% in test [1], 94% in test [2], 84% in test [3] and 56% in test [4]. For the same compound, the activity at 4483.4 g/ha in test [1] turned out to be 96%; in test [2] it was 95%; in test [3], 60%; in test [4] it was 71%.
`CCSC(=O)Nc1cc(Oc2ccc(C(F)(F)F)cc2Cl)ccc1[N+](=O)[O-]` [Example 45]: the activity at 2241.7 g/ha in test [1] amounted to 77%; in test [2], 78%; in test [3], 68%; in test [4], 53%. The activity at 4483.4 g/ha in test [1] came to 58%; in test [2], 88%; in test [3] it was 13%; in test [4], 17%.
As to `CC#CCCOc1cc(Oc2ccc(C(F)(F)F)cc2Cl)ccc1[N+](=O)[O-]` [Example 14], the activity at 2241.7 g/ha in test [1] stood at 22%; in test [2], 100%; in test [3], 30%; in test [4], 91%. For the same compound, the activity at 4483.4 g/ha in test [1] worked out at 78%; in test [2] it was 94%; in test [3], 64%; in test [4] it was 61%.
With `C#CCCOc1cc(Oc2ccc(C(F)(F)F)cc2Cl)ccc1[N+](=O)[O-]` [Example 29], the activity at 2241.7 g/ha in test [1] came to 84%; in test [2] it was 100%; in test [3], 66%; in test [4], 97%. The activity at 4483.4 g/ha in test [1] was 73%; in test [2], 100%; in test [3], 74%; in test [4], 79%.
As to `CCSC(=O)N(C(=O)SCC)c1cc(Oc2ccc(C(F)(F)F)cc2Cl)ccc1[N+](=O)[O-]` [Example 46], the activity at 2241.7 g/ha came out at 87% in test [1], 4% in test [2], 34% in test [3] and 0% in test [4]. Also, the activity at 4483.4 g/ha in test [1] was 20%; in test [2] it was 30%; in test [3], 0%; in test [4], 0%.
Regarding `CN(C)CCOc1cc(Oc2ccc(C(F)(F)F)cc2Cl)ccc1[N+](=O)[O-]` [Example 17, 2-chloro-α,α,α-trifluoro-p-tolyl-3-(2-dimethylaminoethoxy)-4-nitrophenyl ether], the activity at 2241.7 g/ha was found to be 31% in test [1], 98% in test [2], 20% in test [3] and 39% in test [4]. In addition, the activity at 4483.4 g/ha turned out to be 84% in test [1], 89% in test [2], 51% in test [3] and 45% in test [4].
For the compound `CN(CCO)c1cc(Oc2ccc(C(F)(F)F)cc2Cl)ccc1[N+](=O)[O-]` [Example 43], the activity at 2241.7 g/ha in test [1] was 100%; in test [2] it was 80%; in test [3], 99%; in test [4] it was 61%. In addition, the activity at 4483.4 g/ha in test [1] was found to be 48%; in test [2], 47%; in test [3], 0%; in test [4], 2%.
For the compound `CNC(=O)Nc1cc(Oc2ccc(C(F)(F)F)cc2Cl)ccc1[N+](=O)[O-]` [Example 44], the activity at 2241.7 g/ha was determined as 17% in test [1], 10% in test [2], 0% in test [3] and 7% in test [4]. Besides, the activity at 4483.4 g/ha in test [1] is 96%; in test [2], 98%; in test [3], 66%; in test [4], 60%.
On to `O=C(O)COc1cc(Oc2ccc(C(F)(F)F)cc2Cl)ccc1[N+](=O)[O-]` [Example 23], for which the activity at 2241.7 g/ha stood at 87% in test [1], 100% in test [2], 55% in test [3] and 71% in test [4]. Further, the activity at 4483.4 g/ha in test [1] stood at 64%; in test [2], 100%; in test [3] it was 90%; in test [4], 82%.
For `COc1cc(Oc2ccc(C(F)(F)F)cc2Cl)ccc1[N+](=O)[O-]` [Example 2], the activity at 4483.4 g/ha in test [1] turned out to be 80%; in test [2], 100%; in test [3], 97%; in test [4], 99%. The activity at 11208.5 g/ha came out at 100% in test [1] (read-out: Herbicidal activity (% control), preemergence, dicots, 10 lb./A., average, about two weeks after application); 97% in test [3] (10 lb./A.); 100% in test [4] (10 lb./A.).
Take `Nc1cc(Oc2ccc(C(F)(F)F)cc2Cl)ccc1[N+](=O)[O-]` [Example 27]: the activity at 2241.7 g/ha was determined as 90% in test [1], 100% in test [2], 74% in test [3] and 99% in test [4]. For the same compound, the activity at 4483.4 g/ha came to 98% in test [1], 100% in test [2], 76% in test [3] and 82% in test [4].
